For orientation: IC50 means the concentration needed to halve the response being measured. A higher IC50 goes with a need for much substance.

Drawing on ChEMBL document CHEMBL1133438, “Potent acetylcholinesterase inhibitors: design, synthesis and structure-activity relationships of alkylene linked bis-galanthamine and galanthamine-galanthaminium salts” (Bioorg Med Chem Lett, 2000), this text covers IC50 for six compounds.

Chain of Acetylcholinesterase (O42275 whole entry): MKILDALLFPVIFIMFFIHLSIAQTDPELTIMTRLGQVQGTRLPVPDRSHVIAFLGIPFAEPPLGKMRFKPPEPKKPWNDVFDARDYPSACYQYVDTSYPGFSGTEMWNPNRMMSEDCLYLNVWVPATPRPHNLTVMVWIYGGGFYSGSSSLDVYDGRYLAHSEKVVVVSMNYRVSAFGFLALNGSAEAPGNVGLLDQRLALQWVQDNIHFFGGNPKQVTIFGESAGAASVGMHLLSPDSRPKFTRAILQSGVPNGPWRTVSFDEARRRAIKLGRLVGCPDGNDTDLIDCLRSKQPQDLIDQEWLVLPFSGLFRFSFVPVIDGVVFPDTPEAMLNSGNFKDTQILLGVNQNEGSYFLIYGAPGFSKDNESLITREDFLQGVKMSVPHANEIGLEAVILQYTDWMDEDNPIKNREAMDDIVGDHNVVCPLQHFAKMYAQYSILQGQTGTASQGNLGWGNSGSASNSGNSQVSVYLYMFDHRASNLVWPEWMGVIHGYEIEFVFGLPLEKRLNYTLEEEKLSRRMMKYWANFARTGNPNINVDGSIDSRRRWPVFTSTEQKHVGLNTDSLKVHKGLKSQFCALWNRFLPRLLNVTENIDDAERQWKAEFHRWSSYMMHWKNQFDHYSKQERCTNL

The experiment has as its target Acetylcholinesterase (Electrophorus electricus, UniProt O42275). Nature of the experiment: Compound was assessed for in vitro inhibition of Acetylcholinesterase isolated from Electrophorus electricus.
`COc1ccc2c3c1OC1C[C@@H](O)C=C[C@@]31CCN(CCCCCCCCN1CC[C@@]34C=C[C@H](OC)C[C@@H]3Oc3c(OC)ccc(c34)C1)C2` (stereo partly specified) came in with an IC50 of 230 nM.
Take `COc1ccc2c3c1OC1C[C@@H](O)C=C[C@@]31CC[N+](CCCCCCN1CC[C@@]34C=C[C@H](O)C[C@@H]3Oc3c(OC)ccc(c34)C1)=C2` (stereo partly specified): the IC50 was determined as 68 nM.
Turning to `COc1ccc2c3c1OC1C[C@@H](O)C=C[C@@]31CCN(CCCCCCCCCCN1CC[C@@]34C=C[C@H](OC)C[C@@H]3Oc3c(OC)ccc(c34)C1)C2` (stereo partly specified), 560 nM corresponded to half-maximal inhibition (IC50).
Compound `COc1ccc2c3c1OC1C[C@@H](O)C=C[C@@]31CC[N+](CCCCCCCCN1CC[C@@]34C=C[C@H](O)C[C@@H]3Oc3c(OC)ccc(c34)C1)=C2` (stereo partly specified) showed an IC50 of 22 nM.
`COc1ccc2c3c1OC1C[C@@H](O)C=C[C@@]31CC[N+](CCCCCCCCCCN1CC[C@@]34C=C[C@H](O)C[C@@H]3Oc3c(OC)ccc(c34)C1)=C2` (stereo partly specified) showed an IC50 of 12 nM.
`COc1ccc2c3c1OC1C[C@@H](O)C=C[C@@]31CCN(CCCCCCN1CC[C@@]34C=C[C@H](OC)C[C@@H]3Oc3c(OC)ccc(c34)C1)C2` (stereo partly specified) gave an IC50 of 450 nM.
